Experimental data published in PubChem BioAssay (NCI).
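These data come from cells grown in 96-well plates and exposed to compound for 48 hours at five concentrations. The concentration for 50% growth inhibition is given as GI50. Definition used: TGI = concentration required for complete inhibition of growth.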

Legend:
Test in all cases: growth of human tumour cells (NCI), 48 h
HS 578T breast = tested on: HS 578T breast
PC-3 prostate = tested on: PC-3 prostate
MDA-MB-435 = tested on: MDA-MB-435
HT29 colon = tested on: HT29 colon
DU-145 prostate = tested on: DU-145 prostate
MALME-3M melanoma = tested on: MALME-3M melanoma
SN12C renal = tested on: SN12C renal
MDA-MB-231 breast = tested on: MDA-MB-231 breast
A498 renal = tested on: A498 renal
LOX IMVI melanoma = tested on: LOX IMVI melanoma
COLO 205 colon = tested on: COLO 205 colon
SNB-75 CNS = tested on: SNB-75 CNS
HOP-62 NSCLC = tested on: HOP-62 NSCLC
NCI/ADR-RES ovarian = tested on: NCI/ADR-RES ovarian
KM12 colon = tested on: KM12 colon
SK-OV-3 ovarian = tested on: SK-OV-3 ovarian
NCI-H23 lung = tested on: NCI-H23 lung
RXF 393 renal = tested on: RXF 393 renal
SK-MEL-28 melanoma = tested on: SK-MEL-28 melanoma
SF-295 CNS = tested on: SF-295 CNS
HCT-116 colon = tested on: HCT-116 colon
SNB-19 CNS = tested on: SNB-19 CNS
NCI-H226 lung = tested on: NCI-H226 lung
U251 CNS = tested on: U251 CNS
OVCAR-4 ovarian = tested on: OVCAR-4 ovarian
RPMI-8226 leukemia = tested on: RPMI-8226 leukemia
UO-31 renal = tested on: UO-31 renal
M14 melanoma = tested on: M14 melanoma
CAKI-1 renal = tested on: CAKI-1 renal
NCI-H460 lung = tested on: NCI-H460 lung
IGROV1 ovarian = tested on: IGROV1 ovarian
CCRF-CEM leukemia = tested on: CCRF-CEM leukemia
SK-MEL-2 melanoma = tested on: SK-MEL-2 melanoma
SF-268 CNS = tested on: SF-268 CNS
HCT-15 colon = tested on: HCT-15 colon
UACC-62 melanoma = tested on: UACC-62 melanoma
SK-MEL-5 melanoma = tested on: SK-MEL-5 melanoma
HCC-2998 colon = tested on: HCC-2998 colon
BT-549 breast = tested on: BT-549 breast
786-0 renal = tested on: 786-0 renal
T-47D breast = tested on: T-47D breast
TK-10 renal = tested on: TK-10 renal
HOP-92 NSCLC = tested on: HOP-92 NSCLC
OVCAR-5 ovarian = tested on: OVCAR-5 ovarian
OVCAR-8 ovarian = tested on: OVCAR-8 ovarian
A549 NSCLC = tested on: A549 NSCLC
UACC-257 melanoma = tested on: UACC-257 melanoma
OVCAR-3 ovarian = tested on: OVCAR-3 ovarian
ACHN renal = tested on: ACHN renal
MCF7 breast = tested on: MCF7 breast
NCI-H522 lung = tested on: NCI-H522 lung
MOLT-4 leukemia = tested on: MOLT-4 leukemia
HL-60(TB) leukemia = tested on: HL-60(TB) leukemia
SR leukemia = tested on: SR leukemia
SW-620 colon = tested on: SW-620 colon
SF-539 CNS = tested on: SF-539 CNS
K-562 leukemia = tested on: K-562 leukemia

## CCOC(=O)c1sc2nc(SC)nc3c2c1NCN3C1CC1
HS 578T breast
  TGI: > 100 µM
PC-3 prostate
  TGI: > 100 µM
MDA-MB-435
  TGI: > 100 µM
HT29 colon
  TGI: > 100 µM
DU-145 prostate
  TGI: > 100 µM
MALME-3M melanoma
  TGI: > 100 µM
SN12C renal
  TGI: > 100 µM
MDA-MB-231 breast
  TGI: > 100 µM
A498 renal
  TGI: > 100 µM
LOX IMVI melanoma
  TGI: > 100 µM
COLO 205 colon
  TGI: > 100 µM
SNB-75 CNS
  TGI: > 100 µM
HOP-62 NSCLC
  TGI: > 100 µM
NCI/ADR-RES ovarian
  TGI: > 100 µM
KM12 colon
  TGI: > 100 µM
SK-OV-3 ovarian
  TGI: > 100 µM
NCI-H23 lung
  TGI: > 100 µM
RXF 393 renal
  TGI: > 100 µM
SK-MEL-28 melanoma
  TGI: > 100 µM
SF-295 CNS
  TGI: > 100 µM
HCT-116 colon
  TGI: > 100 µM
SNB-19 CNS
  TGI: > 100 µM
NCI-H226 lung
  TGI: > 100 µM
U251 CNS
  TGI: > 100 µM
OVCAR-4 ovarian
  TGI: > 100 µM
RPMI-8226 leukemia
  TGI: > 100 µM
UO-31 renal
  TGI: > 100 µM
M14 melanoma
  TGI: > 100 µM
CAKI-1 renal
  TGI: > 100 µM
NCI-H460 lung
  TGI: > 100 µM
IGROV1 ovarian
  TGI: > 100 µM
CCRF-CEM leukemia
  TGI: > 100 µM
SK-MEL-2 melanoma
  TGI: > 100 µM
SF-268 CNS
  TGI: > 100 µM
HCT-15 colon
  TGI: > 100 µM
UACC-62 melanoma
  TGI: > 100 µM
SK-MEL-5 melanoma
  TGI: > 100 µM
HCC-2998 colon
  TGI: > 100 µM
BT-549 breast
  TGI: > 100 µM
786-0 renal
  TGI: > 100 µM
T-47D breast
  TGI: > 100 µM
TK-10 renal
  TGI: > 100 µM
HOP-92 NSCLC
  TGI: > 100 µM
OVCAR-5 ovarian
  TGI: > 100 µM
OVCAR-8 ovarian
  TGI: > 100 µM
A549 NSCLC
  TGI: > 100 µM
UACC-257 melanoma
  TGI: > 100 µM
OVCAR-3 ovarian
  TGI: > 100 µM
ACHN renal
  TGI: > 100 µM

## CN1CCc2c(c3ccccc3c3ccccc23)C1
HS 578T breast
  GI50: 3.29 µM
  TGI: 17.8 µM
MDA-MB-435
  GI50: 4.47 µM
  TGI: 17.3 µM
HT29 colon
  GI50: 4.23 µM
  TGI: 16.8 µM
DU-145 prostate
  GI50: 5.28 µM
  TGI: 20.5 µM
MALME-3M melanoma
  GI50: 3.34 µM
  TGI: 11.6 µM
SN12C renal
  GI50: 3.74 µM
  TGI: 27.6 µM
MDA-MB-231 breast
  GI50: 8.62 µM
  TGI: 32.2 µM
A498 renal
  GI50: 1.81 µM
  TGI: 7.41 µM
LOX IMVI melanoma
  GI50: 3.17 µM
  TGI: 11.2 µM
COLO 205 colon
  GI50: 3.32 µM
  TGI: 11.1 µM
SNB-75 CNS
  GI50: 6.14 µM
  TGI: 19.9 µM
HOP-62 NSCLC
  GI50: 7.11 µM
  TGI: 26.1 µM
NCI/ADR-RES ovarian
  GI50: 4.58 µM
  TGI: 25.3 µM
MCF7 breast
  GI50: 3.63 µM
  TGI: 13.6 µM
KM12 colon
  GI50: 4.91 µM
  TGI: 16.8 µM
SK-OV-3 ovarian
  GI50: 8.86 µM
  TGI: 44.2 µM
NCI-H23 lung
  GI50: 5.24 µM
  TGI: 21.7 µM
RXF 393 renal
  GI50: 4.18 µM
  TGI: 17.1 µM
SK-MEL-28 melanoma
  GI50: 4.75 µM
  TGI: 18.9 µM
SF-295 CNS
  GI50: 5.37 µM
  TGI: 33.6 µM
NCI-H522 lung
  GI50: 2.76 µM
  TGI: 8.49 µM
HCT-116 colon
  GI50: 3.93 µM
  TGI: 13.5 µM
SNB-19 CNS
  GI50: 4.38 µM
  TGI: 39.1 µM
MOLT-4 leukemia
  GI50: 3.78 µM
  TGI: 19.9 µM
NCI-H226 lung
  GI50: 3.77 µM
  TGI: 29.3 µM
U251 CNS
  GI50: 3.85 µM
  TGI: 16.2 µM
HL-60(TB) leukemia
  GI50: 3.32 µM
  TGI: 10.2 µM
OVCAR-4 ovarian
  GI50: 10.3 µM
  TGI: 40.2 µM
SR leukemia
  GI50: 3.44 µM
  TGI: 15.6 µM
RPMI-8226 leukemia
  GI50: 3.66 µM
  TGI: 12.7 µM
UO-31 renal
  GI50: 3.26 µM
  TGI: 17.2 µM
M14 melanoma
  GI50: 4.34 µM
  TGI: 16.7 µM
SW-620 colon
  GI50: 3.59 µM
  TGI: 15.3 µM
CAKI-1 renal
  GI50: 4.12 µM
  TGI: 18.5 µM
NCI-H460 lung
  GI50: 3.67 µM
  TGI: 13.6 µM
SF-539 CNS
  GI50: 5.1 µM
  TGI: 18.1 µM
IGROV1 ovarian
  GI50: 4.45 µM
  TGI: 16.3 µM
CCRF-CEM leukemia
  GI50: 4.62 µM
  TGI: 21.5 µM
SF-268 CNS
  GI50: 6.46 µM
  TGI: 28 µM
HCT-15 colon
  GI50: 4.43 µM
  TGI: 51.9 µM
UACC-62 melanoma
  GI50: 4.12 µM
  TGI: 16.1 µM
SK-MEL-5 melanoma
  GI50: 2.97 µM
  TGI: 11.4 µM
HCC-2998 colon
  GI50: 5.81 µM
  TGI: 20.2 µM
K-562 leukemia
  GI50: 3.59 µM
  TGI: 14.6 µM
BT-549 breast
  GI50: 12.4 µM
  TGI: 29 µM
786-0 renal
  GI50: 6.23 µM
  TGI: 21.3 µM
T-47D breast
  GI50: 5.68 µM
  TGI: 26.7 µM
TK-10 renal
  GI50: 4.27 µM
  TGI: 15.4 µM
HOP-92 NSCLC
  GI50: 3.31 µM
  TGI: 16.7 µM
OVCAR-5 ovarian
  GI50: 10.9 µM
  TGI: 38.1 µM
OVCAR-8 ovarian
  GI50: 4.46 µM
  TGI: 43.2 µM
A549 NSCLC
  GI50: 3.25 µM
  TGI: 18.5 µM
UACC-257 melanoma
  GI50: 2.87 µM
  TGI: 8.72 µM
OVCAR-3 ovarian
  GI50: 9.92 µM
  TGI: 25.6 µM
ACHN renal
  GI50: 3.6 µM
  TGI: 14.5 µM
